The source made the active and inactive calls. No cut-off for these calls is given here.
What was measured:
[1] = tested on: HT-29; experiment: Cytotoxicity against human HT-29 cells assessed as inhibition of cell growth incubated for 24 hrs by SRB assay; format: functional, cell-based; settings: HT-29, 24 h
[2] = tested on: HCT-116; experiment: Induction of cell cycle arrest in human HCT-116 cells assessed as decrease in CDK4 protein expression upto 10 uM incubated for 24 hrs by Western blot analysis; format: functional, cell-based
[3] = Toxicity in athymic nude BALB/c mouse xenografted with human HT-29 cells assessed as pathological changes in liver at 5 to 15 mg/kg, ip administered every other day and measured after 14 days by hematoxylin and eosin staining-based microscopic analysis; format: organism-based; settings: in vivo, 336 h, dose 5-15 mg/kg, time 14 day
[4] = tested on: HCT-15; experiment: Cytotoxicity against human HCT-15 cells assessed as decrease in cell viability incubated for 48 hrs by SRB assay; format: functional, cell-based; settings: HCT-15, 48 h
[5] = tested on: HT-29; experiment: Inhibition of colony formation in human HT-29 cells at 0.25 to 10 uM incubated for 24 hrs and measured after 14 days by crystal violet staining based assay; format: functional, cell-based; settings: dose 0.25-10 µM, time 14.0 day
[6] = tested on: HT-29; experiment: Induction of cell cycle arrest in human HT-29 cells assessed as accumulation of cells at G2/M phase at 1 uM by RNase/PI staining based flow cytometry analysis (reference value: 9.93 %); format: functional
[7] = tested on: HT-29; experiment: Induction of cell cycle arrest in human HT-29 cells assessed as accumulation of cells at S phase at 5 uM by RNase/PI staining based flow cytometry analysis (reference value: 39.34%); format: functional
[8] = tested on: HCT-116; experiment: Induction of cell cycle arrest in human HCT-116 cells assessed as decrease in cyclin B protein expression upto 10 uM incubated for 24 hrs by Western blot analysis; format: functional, cell-based
[9] = tested on: HCT-116; experiment: Induction of cell cycle arrest in human HCT-116 cells assessed as decrease in P-cdc2 protein expression upto 10 uM incubated for 24 hrs by Western blot analysis; format: functional, cell-based
[10] = tested on: HCT-116; experiment: Induction of apoptosis in human HCT-116 cells assessed as viable cells at 1 uM incubated for 24 hrs by Annexin V-FITC/PI staining based flow cytometric analysis (reference value: 88.8%); format: functional; settings: read-out: Activity
[11] = tested on: HCT-116; experiment: Induction of apoptosis in human HCT-116 cells assessed as early apoptotic cells at 10 uM incubated for 24 hrs by Annexin V-FITC/PI staining based flow cytometric analysis (reference value: 7.22 %); format: functional
[12] = tested on: HCT-116; experiment: Induction of apoptosis in human HCT-116 cells assessed as late apoptotic cells at 5 uM incubated for 24 hrs by Annexin V-FITC/PI staining based flow cytometric analysis (reference value: 2.9 %); format: functional
[13] = tested on: HCT-116; experiment: Induction of apoptosis in human HCT-116 cells assessed as late apoptotic cells at 0.5 uM incubated for 24 hrs by Annexin V-FITC/PI staining based flow cytometric analysis (reference value: 2.9 %); format: functional
[14] = tested on: HT-29; experiment: Induction of apoptosis in human HT-29 cells assessed as late apoptotic cells at 10 uM incubated for 24 hrs by Annexin V-FITC/PI staining based flow cytometric analysis (reference value: 1.56 %); format: functional
[15] = tested on: HT-29; experiment: Induction of apoptosis in human HT-29 cells assessed as late apoptotic cells at 0.25 uM incubated for 24 hrs by Annexin V-FITC/PI staining based flow cytometric analysis (reference value: 1.56 %); format: functional
[16] = tested on: HT-29; experiment: Induction of apoptosis in human HT-29 cells assessed as inhibition of caspase 3 protein expression measured for 24 hrs by Western blot analysis; format: functional, cell-based; settings: dose 0-10 µM
[17] = tested on: HT-29; experiment: Induction of apoptosis in human HT-29 cells assessed as inhibition of caspase 8 protein expression measured for 24 hrs by Western blot analysis; format: functional, cell-based; settings: dose 0-10 µM
[18] = tested on: HCT-116; experiment: Induction of apoptosis in human HCT-116 cells assessed as early apoptotic cells at 5 uM incubated for 24 hrs by Annexin V-FITC/PI staining based flow cytometric analysis (reference value: 8.06 %); format: functional
[19] = tested on: HCT-116; experiment: Induction of apoptosis in human HCT-116 cells assessed as late apoptotic cells at 5 uM incubated for 24 hrs by Annexin V-FITC/PI staining based flow cytometric analysis (reference value: 16.9 %); format: functional
[20] = tested on: HCT-116; experiment: Induction of apoptosis in human HCT-116 cells assessed as necrotic cells at 5 uM preincubated with Z-VAD-FMK for 1 hr followed by compound addition and measured after 24 hrs by Annexin V-FITC/PI staining based flow cytometric analysis (reference value: 0.34 %); format: functional
[21] = tested on: HT-29; experiment: Induction of apoptosis in human HT-29 cells assessed as necrotic cells at 5 uM preincubated with Z-VAD-FMK for 1 hr followed by compound addition and measured after 24 hrs by Annexin V-FITC/PI staining based flow cytometric analysis (reference value: 0.4 %); format: functional
[22] = tested on: HT-29; experiment: Induction of autophagy in human HT-29 cells assessed as increase in LC3 protein expression at 1 to 10 uM incubated for 24 hrs by Western blot analysis; format: functional, cell-based; settings: dose 1-10 µM
[23] = target: Nuclear factor NF-kappa-B complex (Homo sapiens) (UniProt Q00653+P19838+Q04206); experiment: Inhibition of TNF-alpha induced NFkappaB activation in human HCT-116 cells assessed as inhibition of p65 phosphorylation at 1 to 10 uM pretreated for 24 hrs followed by TNFalpha stimulation for 10 mins by Western blot analysis; format: cell-based; settings: dose 1-10 µM, time 1450.0 min
Chain of Nuclear factor NF-kappa-B complex (Homo sapiens) (P19838 whole entry, looked up): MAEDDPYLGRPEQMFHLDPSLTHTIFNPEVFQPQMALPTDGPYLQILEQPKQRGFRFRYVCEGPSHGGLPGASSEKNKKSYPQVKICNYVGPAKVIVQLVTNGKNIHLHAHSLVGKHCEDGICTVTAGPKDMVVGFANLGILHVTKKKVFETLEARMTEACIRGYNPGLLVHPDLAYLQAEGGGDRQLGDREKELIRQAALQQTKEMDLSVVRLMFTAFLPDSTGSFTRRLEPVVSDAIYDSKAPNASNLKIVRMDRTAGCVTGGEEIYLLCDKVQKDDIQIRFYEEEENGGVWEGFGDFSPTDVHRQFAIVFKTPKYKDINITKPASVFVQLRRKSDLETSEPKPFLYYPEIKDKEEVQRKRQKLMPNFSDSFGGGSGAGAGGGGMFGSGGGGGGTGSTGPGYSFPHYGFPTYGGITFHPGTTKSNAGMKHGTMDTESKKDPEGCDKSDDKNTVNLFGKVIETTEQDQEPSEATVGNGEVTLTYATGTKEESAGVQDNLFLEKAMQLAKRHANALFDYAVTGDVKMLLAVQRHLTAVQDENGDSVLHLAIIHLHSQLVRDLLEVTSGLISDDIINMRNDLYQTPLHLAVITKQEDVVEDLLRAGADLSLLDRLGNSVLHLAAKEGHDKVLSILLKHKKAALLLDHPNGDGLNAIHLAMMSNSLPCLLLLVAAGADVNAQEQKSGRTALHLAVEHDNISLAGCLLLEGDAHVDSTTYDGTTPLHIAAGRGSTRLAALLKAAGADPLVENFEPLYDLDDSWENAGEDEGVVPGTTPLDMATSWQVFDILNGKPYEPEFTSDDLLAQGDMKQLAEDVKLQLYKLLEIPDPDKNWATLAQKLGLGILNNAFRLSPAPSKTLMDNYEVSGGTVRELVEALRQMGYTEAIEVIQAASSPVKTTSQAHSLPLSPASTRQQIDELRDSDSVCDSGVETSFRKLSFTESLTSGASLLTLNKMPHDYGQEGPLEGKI
Chain of Nuclear factor NF-kappa-B complex (Homo sapiens) (Q00653 whole entry, looked up): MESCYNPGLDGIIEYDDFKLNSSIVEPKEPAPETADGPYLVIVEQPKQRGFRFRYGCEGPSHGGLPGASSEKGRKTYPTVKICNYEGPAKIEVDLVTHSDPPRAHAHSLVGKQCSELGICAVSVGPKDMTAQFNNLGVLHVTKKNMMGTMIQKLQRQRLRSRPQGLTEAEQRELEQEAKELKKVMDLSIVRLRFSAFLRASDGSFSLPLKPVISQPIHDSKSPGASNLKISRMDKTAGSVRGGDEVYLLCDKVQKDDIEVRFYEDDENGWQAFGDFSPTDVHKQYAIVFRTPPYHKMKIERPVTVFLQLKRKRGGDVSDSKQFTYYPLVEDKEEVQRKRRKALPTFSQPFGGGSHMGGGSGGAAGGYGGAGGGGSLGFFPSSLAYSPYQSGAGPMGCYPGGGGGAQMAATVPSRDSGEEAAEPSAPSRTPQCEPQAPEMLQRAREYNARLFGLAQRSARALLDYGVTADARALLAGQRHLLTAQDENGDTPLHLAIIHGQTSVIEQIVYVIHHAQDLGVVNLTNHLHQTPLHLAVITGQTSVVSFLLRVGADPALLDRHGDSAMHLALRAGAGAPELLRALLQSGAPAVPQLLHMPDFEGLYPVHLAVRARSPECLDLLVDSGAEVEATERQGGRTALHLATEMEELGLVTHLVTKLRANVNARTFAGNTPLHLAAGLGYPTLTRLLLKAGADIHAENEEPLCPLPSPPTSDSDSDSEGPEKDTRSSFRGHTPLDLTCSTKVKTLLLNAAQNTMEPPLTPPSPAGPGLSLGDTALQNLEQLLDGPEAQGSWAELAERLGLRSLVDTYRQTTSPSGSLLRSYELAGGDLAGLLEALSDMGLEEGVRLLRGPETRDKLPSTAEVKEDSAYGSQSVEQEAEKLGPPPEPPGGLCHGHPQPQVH
Chain of Nuclear factor NF-kappa-B complex (Homo sapiens) (Q04206 whole entry, looked up): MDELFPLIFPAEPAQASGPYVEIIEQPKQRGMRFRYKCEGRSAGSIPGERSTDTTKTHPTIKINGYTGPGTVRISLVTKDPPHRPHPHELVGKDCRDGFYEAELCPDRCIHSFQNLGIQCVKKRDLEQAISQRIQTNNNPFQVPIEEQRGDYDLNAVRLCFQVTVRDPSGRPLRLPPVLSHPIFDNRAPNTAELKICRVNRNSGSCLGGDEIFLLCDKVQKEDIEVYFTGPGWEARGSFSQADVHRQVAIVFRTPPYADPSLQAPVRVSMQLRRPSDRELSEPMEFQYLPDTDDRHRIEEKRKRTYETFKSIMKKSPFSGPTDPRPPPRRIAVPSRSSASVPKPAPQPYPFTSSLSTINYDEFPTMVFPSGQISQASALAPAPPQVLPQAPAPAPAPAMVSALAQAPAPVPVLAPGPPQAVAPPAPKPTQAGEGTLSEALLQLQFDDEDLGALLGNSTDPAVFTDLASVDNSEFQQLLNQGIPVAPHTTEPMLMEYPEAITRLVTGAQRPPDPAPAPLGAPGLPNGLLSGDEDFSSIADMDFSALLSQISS

[24] = tested on: RAW264.7; experiment: Inhibition of LPS-induced NFkappaB activation in mouse RAW264.7 cells assessed as inhibition of p65 phosphorylation preincubated for 24 hrs followed by LPS stimulation for 3 hrs by Western blot analysis; format: cell-based; settings: dose 1-10 µM, time 27.0 hrs
[25] = tested on: Mus musculus; experiment: In vivo inhibition of NFkappaB activation in athymic BALB/c mouse xenografted with human HCT-116 cells assessed as reduction in MCP-1 gene expression in tumor at 15 mg/kg, ip administered every other day and measured after 14 days by qRT-PCR analysis; format: functional, organism-based; settings: time 14.0 day
[26] = Toxicity in athymic nude BALB/c mouse xenografted with human HT-29 cells assessed as pathological changes in heart at 5 to 15 mg/kg, ip administered every other day and measured after 14 days by hematoxylin and eosin staining-based microscopic analysis; format: organism-based; settings: in vivo, 336 h, dose 5-15 mg/kg, time 14 day
[27] = tested on: Mus musculus; experiment: Anti-inflammatory activity in AOM/DSS-induced BALB/c mouse model inflammatory bowel disease assessed as reduction in colon length at 5 to 10 mg/kg, ip pretreated with AOM for 7 days further replaced with DSS for 7 days and repeated for 2 times followed by every 2 days compound treatment for […] starting from day 50 and measured once a week; format: functional, organism-based; settings: dose 5-10 mg/kg, time 21.0 day
[28] = tested on: Mus musculus; experiment: In vivo inhibition of NFkappaB activation in AOM/DSS-induced inflammatory bowel disease BALB/c mouse model assessed as inhibition of serum TNF-alpha production at 5 to 10 mg/kg, ip pretreated with AOM for 7 days further replaced with DSS for 7 days and repeated for 2 times followed by every 2 days compound treatment for […] starting from day 50 by ELISA; format: functional, organism-based; settings: dose 5-10 mg/kg, time 21.0 day
[29] = tested on: HCT-116; experiment: Induction of cell death in human HCT-116 cells at 0.5 to 10 uM pretreated with Z-VAD-FMK for 1 hr followed by compound addition and measured after 24 hrs by SRB assay; format: functional, cell-based; settings: dose 0.5-10 µM
[30] = tested on: HT-29; experiment: Induction of autophagic flux in human HT-29 cells assessed as increase in LC3 protein expression preincubated with 3-methyladenine for 1 hr followed by compound addition and measured after 24 hrs by Western blot analysis; format: functional, cell-based
[31] = tested on: HT-29; experiment: Induction of autophagic cell death in human HT-29 cells at 1 to 10 uM pretreated with chloroquine for 1 hr followed by compound addition and measured after 24 hrs by SRB assay; format: functional, cell-based; settings: dose 1-10 µM

C[C@@H]1CC[C@H]2[C@H](C(=O)c3c(O)c([C@@]4(O)CC[C@@H](O)[C@H]5O[C@H]54)cn(O)c3=O)[C@H](C)C=C[C@@H]2C1
IC50 [1]: 610 nM
Activity [2]: Active
Activity [3]: Non-Toxic
IC50 [4]: 570 nM
inhibition [5]: Active
Activity [6]: 7.08%
Activity [7]: 32.46%
Activity [8]: Active
Activity [9]: Active
viability at 1 µM [10]: 32%
Activity [11]: 12.3%
Activity [12]: 64.4%
Activity [13]: 32.8%
Activity [14]: 16.8%
Activity [15]: 1.4%
Activity [16]: Dose-Dependent Effect
Activity [17]: Dose-Dependent Effect
Activity [18]: 5.47%
Activity [19]: 78.5%
Activity [20]: 0.39%
Activity [21]: 0.15%
Activity [22]: Active
inhibition [23]: Active
inhibition [24]: Dose-Dependent Effect
inhibition [25]: Active
Activity [26]: Non-Toxic
Activity [27]: Active
inhibition [28]: Active
inhibition [29]: inactive
Activity [30]: Active
Activity [31]: inactive

From ChEMBL document CHEMBL5390201, “The Natural Alkaloid (-)-N-Hydroxyapiosporamide Suppresses Colorectal Tumor Progression as an NF-κB Pathway Inhibitor by Targeting the TAK1-TRAF6 Complex” (J Nat Prod, 2023)
